Measured values as given in patent US6335322B1, “Therapeutic agents” (priority 1993, dated 2002).
“Also recorded” adds a separate entry of the source. Read-outs that look alike come from different tables or passages of the source.

Assays:
[1] = test system: glioblastoma taken from a patient; assay: Clonogenic agarose assay, glioblastoma biopsy; type: cell-based, human; details: FIGS. 1 and 2
Method: A biopsy was taken from the patient and placed immediately in a growth medium. Tumour tissue was desegregated mechanically, and living cells were selected the chemotherapeutic test substance was added, BCNU (in water) and Ara-C and Ara-C esters (in micelles), and the cells were cultivated in a soft agarose medium. Twenty-four hours before termination of the cultures (7 days) ^3H Thymidin was added. The activity of the test substance is thus quantified as cpm in a scintillation counter.
The results here are obtained with a glioblastoma taken from a patient. The same response pattern is found in 8 other glioblastoma biopsies. […] The results are given as % of the untreated control. A count of 50% (CD50) is taken as promising regarding use in therapy of this actual cancer line. What is worth nothing here is the 10^1.5 higher concentration of Ara-C needed to obtain CD50 as compared with elaidyl esters.

[2] = test system: brain metastasis of a melanoma; assay: Clonogenic agarose assay, melanoma brain metastasis biopsy; type: cell-based, human
Method: A biopsy was taken from the patient and placed immediately in a growth medium. […] Twenty-four hours before termination of the cultures (7 days) ^3H Thymidin was added. The activity of the test substance is thus quantified as cpm in a scintillation counter.

[3] = test system: A549 cells (human lung carcinoma); assay: Cell inactivation, colony forming ability, A549; type: cell-based; details: FIG. 9; exposed for 24 hours
Method: (§1) Cell inactivation measured by means of loss of ability to form colonies was determined for several compounds. Cells used were of the established human cell lines of cancer cervix in situ origin, NHIK 3025, NHIK 3025/DDP, a cis-DDP-resistant variant of the same or A549 cells (human lung carcinoma). The cells were exposed to the test compound for 4 up till 24 hours. Test compounds were administered as micellar solution. Number of colonies were counted after about 12 days of incubation.
The cells were exposed for 24 hours.

[4] = test system: Raji human B-lymphoma cells; assay: Leukaemia model using Raji cells in SCID mice; type: in vivo
Method: SCID mice were injected intravenously with 1×10^6 Raji human B-lymphoma cells. […] Animals develop paralysis of the hind legs as a result of the tumour growth.

[5] = Comparative pharmacokinetic, distribution, metabolism and excretion, i.v. to male rats; details: for Excretion of radioactivity: 14C-Ara-C-elaidate 5 mg/kg or 14C-Ara-C 2.4 mg/kg
Method: (§2) Plasma concentrations of total radioactivity and of the metabolites were determined at different timepoints. Tissue concentrations of total radioactivity were determined from a range of tissues at different timepoints up to 120 hours following injection. Liver tissues were extracted and metabolite concentrations were determined up to 72 hours post injection.

[6] = test system: Molt 4 human lymphoma cells; assay: Molt 4 leptomeningal carcinomatosis model in nude rats; type: in vivo; details: FIG. 12; treated 4x in cisterna magna
Method: The model used is a tumour model in nude rats for leptomeningal growth of tumours. 10^6 cells of the T-cell tumour line Molt 4 were injected into the spinal fluid through cistema magna (c.m.) of 4-5 weeks old nude rats. The animals develop neurological symptoms after 20-22 days if untreated. Anaesthetised animals were treated intracerebrally with a 40 μl injection into cistema magna with 4 bolus injections. Treatment was started 1 day after cell inoculation. Test compounds were Ara-C-5′-elaidyl ester (in micelles) and Ara-C. Ara-C was administered both at maximal tolerable dose (MTD) and at an equimotar dose to Ara-C-5′-elaidyl ester. Control animals (treated with NaCl) developed symptoms from the central nervous system after approximately 20 days.

[7] = test system: Raji human B-lymphoma cells; assay: Raji leptomeningal carcinomatosis model in nude rats; type: in vivo; details: for mean day of death: 3 bolus injections on day 1, 2 and 4
Method: The model used is a tumour model in nude rats for leptomeningal growth of tumours. 1×10^6 cells of the Bcell tumour line Raji were injected into the spinal fluid through cistema magna (c.m.). of 4-5 weeks old nude rats. […] Anaesthetised animals were treated intracerebrally with a 40 μl injection into cistema magna with 3 or 4 bolus injections. Treatment was started 1 day after cell inoculation.

NHIK 3025/DDP cells = assay: Cell inactivation, colony forming ability, NHIK 3025/DDP; type: cell-based, human; details: FIG. 8; 4 h treatment
Method: as §1
The results here are obtained with 4 h treatment of NHIK 3025/DDP cells.

NFkappaB = assay: Activation of the cellular transcription factor NFkappaB (β-galactosidase reporter, SW480 cells); type: cell-based, human; details: FIG. 15; exposure 4 h
Method: Human SW480 colon adenocarcinoma cells stably transfected with a CMV promotor/enhancer containing the gene for β-galactosidase were used. Activation of the transcription factor NFkappaB results in enhanced amount of the enzyme β-galactosidase in cytoplasma. The amount of β-galactosidase is quantified using optical density at 570 nm as parameter. The […] cells were incubated 2-3 days before exposure to the test compound for 4 h. The cells were washed and prepared, and optical density recorded for the different compounds.

[8] = rat, in vivo
Method: as §2

[9] = test system: PV/2b/35 hemangiosarcoma cells; assay: Anti-tumour activity in SCID mice with hemangiosarcoma cells; type: in vivo; details: FIG. 17, 25 mg/kg/day
From the text: SCID mice were inoculated intraperitoneally with PV/2b/35 hemangiosarcoma cells. […] Controls were empty micelles, DMSO or PBS respectively. The animals were not treated during weekends. Survival was the endpoint of the study.

[10] = test system: glioblastoma cell line U-118; assay: Glioblastoma U-118 subcutaneous tumour in nude mice, intratumoural injection
Method: A glioblastoma cell line U-118 (Uppsala) tissue culture was injected subcutaneously in nude mice. A small part (2×2 mm) of growing tumour was transferred to new mice. […] Depending on the actual tumour size, the animals received the same relative amount of test substance. The control was given saline water. The growth rate was recorded as relative tumour volume (RTV).

TLX/5 lymphoma = assay: Anti-tumour activity against murine TLX/5 lymphoma; type: in vivo, CBA mice; details: FIG. 16; for Maximum increase in lifespan: i.p. days 3-7, 6.25-50 mg/kg/day, median of 5; for doses at which active (increase in life span): i.p. treatment for 5 days
Method: CBA mice weighing 20-25 g were inoculated subcutaneously inguinally with 1×10^5, TLX/5 tumour cells day 0. […] Doses were in the range 6.25-50 mg/kg/day. There were 5 mice per treatment per group and 10 tumour-bearing controls. Activity was assessed in terms of increase in life span (ILS) versus controls.

O=NN(CCCl)C(=O)NCCCl [BCNU, N,N-cis(2-chloroethyl)N-nitroso-urea]
concentration needed to obtain CD50, times higher than with the Ara-C esters [1]: about 10 times
concentration needed to obtain CD50 compared to Ara-C alone [1]: reasonably comparable
higher concentration to give CD50 compared to the Ara-C esters ([2]; FIG. 4): more than 1×10^2

CCCCCCCC/C=C/CCCCCCCC(=O)OC[C@H]1O[C@@H](n2ccc(N)nc2=O)[C@@H](O)[C@@H]1O [Ara-C-elaidate, 5′-O-(Elaidoyl) 1-β-D-arabinofuranosylcytosine]
inactivation (colony forming ability) compared to Ara-C [3]: enhanced effect
fraction of the molar dose of Ara-C giving similar anti-cancer effects ([4]; FIG. 13): 1/20
mean survival ([4]; FIG. 13, i.v. days 7, 9, 11, 13, 15, 20 mg/kg Ara-C-elaidate vs 200 mg/kg Ara-C): increased mean survival compared to control and Ara-C treated animals
mean survival time ([4]; FIG. 14, i.p. once daily days 7-11, versus every other day): greatly prolonged
Excretion of radioactivity ([5]; 0-6 hours, i.v. male rats): 59.1 ± 3.7 % of dose
Excretion of radioactivity ([5]; 6-24 hours, i.v. male rats): 34.1 ± 2.5 % of dose
Excretion of radioactivity ([5]; 24-48 hours, i.v. male rats): 2.7 ± 0.8 % of dose
Excretion of radioactivity ([5]; 48-72 hours, i.v. male rats): 0.5 ± 0.1 % of dose
Excretion of radioactivity ([5]; 72-96 hours, i.v. male rats): 0.2 ± 0.1 % of dose
detection of metabolite Ara-U in liver ([5]; FIG. 19): no detection of Ara-U up to 24 hours
time a therapeutic significant Ara-C level is sustained in liver ([5]; FIG. 19, after dosing the ester): at least 72 h
time up to which Ara-C is detectable in plasma ([5]; FIG. 20): 72 h
metabolism of Ara-C to Ara-U ([5]; FIG. 20, plasma): less extensive, and starts later
rate of excretion of radioactivity in urine compared to 14C-Ara-C ([5]; Table 2): slower
proportion of the dose in whole-blood ([5]; at 0.08 hours after i.v. administration): 64.7%
excretion via the renal system compared to Ara-C ([5]; i.v. male rats): much slower
conversion to Ara-U compared to Ara-C ([5]; table 1 and FIG. 20): slower
onset of death compared to Ara-C or control [6]: delayed
increase of symptom free latency period as compared to Ara-C ([7]; FIG. 10, 3 bolus injections into cisterna magna on day 1, 2 and 4): 135%
mean day of death ([7]; FIG. 10): 30.5 days
survival of one rat (considered cured) ([7]; FIG. 10, 3 bolus injections, no tumours at necropsy day 76): more than 70 days
rats still alive and symptom-free at day 70 ([7]; FIG. 11, 4 daily bolus doses day 1-4 into cisterna magna): 3 out of 5
effect on colony forming ability compared to Ara-C (NHIK 3025/DDP cells): Enhanced effect
β-galactosidase activity (optical density at 570 nm), NFkappaB activation (NFkappaB): substantial increase in β-galactosidase activity
initial whole blood and plasma concentration compared to Ara-C [8]: higher
maximal concentrations compared to Ara-C [8]: lower
maximal concentrations in most tissues compared to Ara-C [8]: notably higher and occurred at later timepoints
plasma levels of both Ara-C and Ara-U [8]: can still be quantified at 72 h
tissue concentration of total radioactivity compared to 14C-Ara-C [8]: higher at all timepoints up to 120 hours
concentration of active drug in RES tissues compared to Ara-C ([8]; iv): significantly higher
elimination from tissues compared to 14C-Ara-C ([8]; iv): much slower
tissue distribution compared to Ara-C ([8]; iv): significantly altered
survival ([9]; 5 days per week): greatly enhanced
survival compared to control ([9]; dissolved in DMSO): enhanced survival compared to control
survival compared to control ([9]; prepared in micelles): enhanced survival compared to control
CNS disturbance ([10]; FIG. 18, intratumoural injection): nor was there noted any sign of CNS disturbance
tumour growth (relative tumour volume) ([10]; FIG. 18, intratumoural injection of 10 mg/ml micellar solution): complete stop in tumour growth
toxic side effects ([10]; mouse, in vivo): no signs of toxic side effects
Maximum increase in lifespan (TLX/5 lymphoma): 47.2%
doses at which active (increase in life span) (TLX/5 lymphoma): active at the doses 12.5 mg/kg and 25 mg/kg

CCCCCCCCCCCC=CCCCCC(=O)OCC1OC(n2ccc(N)nc2=O)C(O)C1O (stereo not drawn) [Ara-C-5′-petroseline ester]
inactivation (colony forming ability) compared to Ara-C [3]: enhanced effect

CCCCCCCCCCCCCCCCCC(=O)OCC1OC(n2ccc(N)nc2=O)C(O)C1O (stereo not drawn) [Ara-C-5′-stearyl ester]
inactivation (colony forming ability) compared to Ara-C [3]: highest inactivation

Nc1ccn([C@@H]2O[C@H](CO)[C@@H](O)[C@@H]2O)c(=O)n1 [Ara-C, 1-β-D-arabinofuranosylcytosine, reference compound]
difference (CD50 concentration) between Ara-C and the 3′- and 5′-elaidyl esters ([2]; FIG. 3): ~10 times
mean day of death ([7]; FIG. 10): 13 days
effect on survival ([7]; FIG. 11, 4 bolus doses day 1-4, Ara-C at MTD and at dose equimolar to Ara-C-elaidate): void of activity; also recorded: no effects
time up to which Ara-C is detectable in plasma ([8]; male): 24 h
liver concentration of Ara-C ([8]; male, 4 h): non-detectable levels after 4 hours
plasma levels of both Ara-C and Ara-U ([8]; male, 48 h): below the assay limit of detection at 48 h
proportion of the dose in whole-blood ([8]; male, iv, 0.08 h): 7.76%
Maximum increase in lifespan (TLX/5 lymphoma): 32.7%
doses at which active (increase in life span) (TLX/5 lymphoma): only active at the dose 25 mg/kg
